In the test the target is T1, NMDA receptor composed of four subunits including 2 sets of heterodimers of NR1 and NR2B (Homo sapiens, UniProt Q13224).
T1 construct: host or cells: HEK293 (tetracycline-induced expression)
Kind of test: NR2B Ca2+ influx assay (FLIPR, Fluo-4) in HEK293 cells expressing human GRIN1 and GRIN2B. In kind it is cell-based. To be noted: HEK293, 10 μM final compound concentration, glutamic acid/glycine-induced Ca2+ influx, read-out: inhibitory rate (10 μM compound concentration). An outline of the steps: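 Tetracycline-induced (2 h) HEK293 cells expressing human GRIN1/GRIN2B, Fluo-4-loaded, were preincubated 15 min at room temperature with compound at 10 μM final. FLIPR recorded Ca2+ influx every 3 s for 5 min after glutamate/glycine addition (30 μM in added buffer); inhibition from cumulative fluorescence relative to agonist-free wells.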

T1 sequence (Q13224 27-1484, other chains not shown): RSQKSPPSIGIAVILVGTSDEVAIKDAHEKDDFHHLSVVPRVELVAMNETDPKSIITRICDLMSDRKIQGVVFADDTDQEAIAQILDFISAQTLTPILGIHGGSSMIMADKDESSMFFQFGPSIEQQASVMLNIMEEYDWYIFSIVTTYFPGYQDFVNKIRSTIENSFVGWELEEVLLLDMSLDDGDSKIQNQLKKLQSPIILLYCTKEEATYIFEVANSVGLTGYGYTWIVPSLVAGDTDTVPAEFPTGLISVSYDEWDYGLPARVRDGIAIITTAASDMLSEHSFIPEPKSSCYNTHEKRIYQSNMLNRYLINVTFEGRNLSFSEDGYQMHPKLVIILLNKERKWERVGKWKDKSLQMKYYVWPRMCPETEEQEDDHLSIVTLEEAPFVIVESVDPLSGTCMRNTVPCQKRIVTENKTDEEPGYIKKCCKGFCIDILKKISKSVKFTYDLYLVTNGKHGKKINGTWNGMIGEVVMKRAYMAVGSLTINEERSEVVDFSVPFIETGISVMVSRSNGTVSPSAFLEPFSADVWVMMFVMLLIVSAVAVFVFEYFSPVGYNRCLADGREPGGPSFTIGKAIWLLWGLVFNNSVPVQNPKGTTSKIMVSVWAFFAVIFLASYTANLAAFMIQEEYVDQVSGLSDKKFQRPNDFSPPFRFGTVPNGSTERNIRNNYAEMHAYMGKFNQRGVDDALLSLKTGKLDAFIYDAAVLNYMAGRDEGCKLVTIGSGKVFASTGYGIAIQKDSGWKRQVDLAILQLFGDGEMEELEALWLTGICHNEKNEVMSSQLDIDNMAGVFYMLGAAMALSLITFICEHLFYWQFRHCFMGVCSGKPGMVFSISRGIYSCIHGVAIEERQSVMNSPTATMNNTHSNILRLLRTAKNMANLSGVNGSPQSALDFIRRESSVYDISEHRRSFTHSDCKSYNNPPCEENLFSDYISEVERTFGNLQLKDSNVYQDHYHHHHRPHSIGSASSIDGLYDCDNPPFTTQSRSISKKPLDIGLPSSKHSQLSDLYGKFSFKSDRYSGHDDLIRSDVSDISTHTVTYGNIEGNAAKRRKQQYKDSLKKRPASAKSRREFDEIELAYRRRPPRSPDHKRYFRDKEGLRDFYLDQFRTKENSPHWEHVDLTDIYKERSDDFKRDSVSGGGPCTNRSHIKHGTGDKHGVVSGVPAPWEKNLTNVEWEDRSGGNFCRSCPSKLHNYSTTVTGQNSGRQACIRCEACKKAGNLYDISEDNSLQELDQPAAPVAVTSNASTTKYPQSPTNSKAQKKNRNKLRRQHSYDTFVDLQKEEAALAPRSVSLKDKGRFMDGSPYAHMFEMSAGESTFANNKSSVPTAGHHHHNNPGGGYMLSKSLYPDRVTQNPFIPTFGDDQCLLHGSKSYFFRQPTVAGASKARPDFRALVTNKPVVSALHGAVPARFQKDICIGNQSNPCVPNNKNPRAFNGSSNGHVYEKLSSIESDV

As to `CCOc1ncc(C(=O)NCc2c(OC)ccc3ncn(C)c23)cc1Cl` [Example 58, 5-chloro-6-ethoxy-N-((6-methoxy-1-methyl-1H-benzimidazol-7-yl)methyl)nicotinamide], the inhibition at 10 µM is 93%.

As for `O=C(NCc1cccc2[nH]ncc12)c1ccc(OC(F)(F)F)nc1` [Example 170, N-(1H-indazol-4-ylmethyl)-6-(trifluoromethoxy)-nicotinamide], the inhibition at 10 µM was 76%. Then `O=C(NCc1cccc2[nH]ncc12)c1cc(F)c(Cl)c(F)c1` [Example 189, 4-chloro-3,5-difluoro-N-(1H-indazol-4-ylmethyl)benzamide], with 67%; and `COc1ccc2ncn(C)c2c1CNC(=O)c1ccc(F)c(C(F)(F)F)c1` [Example 40, 4-fluoro-N-((6-methoxy-1-methyl-1H-benzimidazol-7-yl)methyl)-3-(trifluoro-methyl)benzamide], with 89%.

`O=C(NCc1c(C2CC2)ccc2[nH]ncc12)c1ccc(F)c(C(F)(F)F)c1` [Example 85, N-((5-cyclopropyl-1H-indazol-4-yl)methyl)-4-fluoro-3-(trifluoromethyl)-benzamide]: the inhibition at 10 µM was determined as 93%. The value for `O=C(NCc1cccc2[nH]ncc12)c1ccc(C(F)F)c(Cl)c1` [Example 190, 3-chloro-4-(difluoromethyl)-N-(1H-indazol-4-ylmethyl)benzamide] was 86%; that for `CCc1ccc2ncn(C)c2c1CNC(=O)c1ccc(OC)c(F)c1` [Example 130, N-((6-ethyl-1-methyl-1H-benzimidazol-7-yl)methyl)-3-fluoro-4-methoxybenzamide] was 91%; that for `CCc1ccc2ncn(C)c2c1CNC(=O)c1cnc(OC)c(F)c1` [Example 22, N-((6-ethyl-1-methyl-1H-benzimidazol-7-yl)-methyl)-5-fluoro-6-methoxynicotinamide] was 90%. On to `O=C(NCc1c(C2CC2)ccc2[nH]ncc12)c1cc(F)c(F)c(Cl)c1` [Example 95, 3-chloro-N-((5-cyclopropyl-1H-indazol-4-yl)methyl)-4,5-difluorobenzamide], for which the inhibition at 10 µM was found to be 95%.

`Cc1ccc2[nH]nnc2c1CNC(=O)c1ccc(OC(F)F)c(F)c1` [Example 263, 4-(difluoromethoxy)-3-fluoro-N-((5-methyl-1H-benzotriazol-4-yl)methyl)benzamide]: the inhibition at 10 µM is 98%. Then `COc1ccc(C(=O)NCc2c(C3CC3)ccc3[nH]ncc23)cc1F` [Example 94, N-((5-cyclopropyl-1H-indazol-4-yl)methyl)-3-fluoro-4-methoxy-benzamide], with 93%. As for `COc1ccc2ncn(C)c2c1CNC(=O)c1ccc(OC(F)(F)F)c(F)c1` [Example 52, 3-fluoro-N-((6-methoxy-1-methyl-1H-benzimidazol-7-yl)methyl)-4-(trifluoro-methoxy)benzamide], the inhibition at 10 µM was 91%. Then `COc1ccc2ncn(C)c2c1CNC(=O)c1ccc(OC(F)F)nc1` [Example 276, 6-(difluoromethoxy)-N-[(6-methoxy-l-methyl-1H-benzimidazol-7-yl)methyl]pyridine-3-carboxamide], with 88%; and `COc1ccc(NC(=O)NCc2c(OC)ccc3ncn(C)c23)c(F)c1F` [Example 259, 1-(2,3-difluoro-4-methoxyphenyl)-3-((6-methoxy-1-methyl-1H-benzimidazol-7-yl)methyl)urea], with 87%. With `COc1ccc2nc(C)n(C)c2c1CNC(=O)c1ccc(OC(F)F)cc1` [Example 245, 4-(difluoromethoxy)-N-((6-methoxy-1,2-dimethyl-1H-benzimidazol-7-yl)methyl)benzamide], the inhibition at 10 µM was 81%. The value for `COc1ccc2nc(C)n(C)c2c1CNC(=O)c1ccc(C(F)F)c(F)c1` [Example 242, 4-(difluoromethyl)-3-fluoro-N-((6-methoxy-1,2-dimethyl-lH-benzimidazol-7-yl)methyl)benzamide] was 69%; that for `COc1cc(C(=O)NCc2c(C3CC3)ccc3[nH]ncc23)ccc1F` [Example 72, N-((5-cyclopropyl-1H-indazol-4-yl)methyl)-4-fluoro-3-methoxy-benzamide] was 89%. Then `Cc1ccc2ncn(C)c2c1CNC(=O)c1ccc(C(F)F)s1` [Example 137, 5-(difluoromethyl) -N-((1,6-dimethyl-1H-benzimidazol-7-yl)methyl)thiophene-2-carboxamide], with 72%; and `CCc1ccc2ncn(C)c2c1CNC(=O)c1ccc(C(F)F)c(F)c1` [Example 146, 4-(difluoromethyl)-N-((6-ethyl-1-methyl-1H-benzimidazol-7-yl)methyl)-3-fluorobenzamide], with 90%; and `COc1ccc2ncn(C)c2c1CNC(=O)Nc1ccc(Cl)cc1` [Example 257, 1-(4-chlorophenyl)-3-((6-methoxy-1-methyl-1H-benzimidazol-7-yl)methyl)urea], with 90%. As for `O=C(NCc1cccc2[nH]ncc12)c1ccc(C(F)(F)F)s1` [Example 167, N-(1H-indazol-4-ylmethyl)-5-(trifluoromethyl)-thiophene-2-carboxamide], the inhibition at 10 µM was determined as 58%. The value for `Cc1ccc2[nH]nnc2c1CNC(=O)c1cc(F)c(C)c(F)c1` [Example 196, 3,5-difluoro-4-methyl-N-((5-methyl-1H-benzotriazol-4-yl)methyl)benzamide] was 78%; that for `COc1ccc(C(=O)NCc2c(C3CC3)ccc3[nH]ncc23)s1` [Example 67, N-((5-cyclopropyl-1H-indazol-4-yl)methyl)-methoxythiophene-2-carboxamide] was 92%. The value for `COc1ncc(C(=O)NCc2cccc3[nH]ncc23)cc1F` [Example 172, 5-fluoro-N-(1H-indazol-4-ylmethyl)-6-methoxynicotinamide] was 60%; that for `COc1ccc2ncn(C)c2c1CNC(=O)Nc1ccccc1` [Example 255, 1-((6-methoxy-1-methyl-1H-benzimidazol-7-yl)methyl)-3-phenylurea] was 67%. Then `COc1ccc2ncn(C)c2c1CNC(=O)c1csc(C2CC2)c1` [Example 115, 5-cyclopropyl-N-((6-methoxy-1-methyl-1H-benzimidazol-7-yl)methyl)thiophene-3-carboxamide], with 93%. For the compound `COc1ccc2ncn(C)c2c1CNC(=O)Nc1cccc(C(F)(F)F)c1` [Example 222, 1-((6-methoxy-1-methyl-lH-benzimidazol-7-yl)methyl)-3-(3-(trifluoromethyl)-phenyl)urea], the inhibition at 10 µM stood at 55%.

As for `COCc1ccc2ncn(C)c2c1CNC(=O)c1ccc(OC(F)(F)F)c(F)c1` [Example 284, 3-fluoro-N-{[6-(methoxymethyl)-1-methyl-1H-benzimidazol-7-yl]methyl}-4-(trifluoromethoxy)-benzamide], the inhibition at 10 µM was 95%. The value for `COc1ccc2ncn(C)c2c1CNC(=O)c1ccc(Cl)cc1` [Example 116, 4-chloro-N-((6-methoxy-1-methyl-1H-benzimidazol-7-yl)methyl)benzamide] was 90%. The value for `Cc1ccc2ncn(C)c2c1CNC(=O)c1ccc(OC(F)F)nc1` [Example 159, 6-(difluoromethoxy)-N-((1,6-dimethyl-1H-benzimidazol-7-yl)methyl)nicotinamide] was 86%.

Values taken from patent publication US11230541B2, “Heterocyclic compound” (Takeda Pharmaceutical Company Limited, priority 2017, dated 2022).
